Reference: article PMC9721424, “Novel N-methylsulfonyl-indole derivatives: biological activity and COX-2/5-LOX inhibitory effect with improved gastro protective profile and reduced cardio vascular risks” (Journal of Enzyme Inhibition and Medicinal Chemistry, 2022)
“And” between values parts separate entries of the source, which are not always exact repeats. Equal values may be shown once. Read-outs that look alike come from different tables or passages of the source.

Assays:
5-LOX enzyme = biological target: T1, 5-LOX enzyme (Homo sapiens, UniProt P09917); test: 5-LOX inhibition, Human Lipoxygenase Inhibitor Screening Assay (EIA) kit; assay type: biochemical
T1 construct: purchased Cayman Chemical K980-100
T1 sequence (P09917 1-674): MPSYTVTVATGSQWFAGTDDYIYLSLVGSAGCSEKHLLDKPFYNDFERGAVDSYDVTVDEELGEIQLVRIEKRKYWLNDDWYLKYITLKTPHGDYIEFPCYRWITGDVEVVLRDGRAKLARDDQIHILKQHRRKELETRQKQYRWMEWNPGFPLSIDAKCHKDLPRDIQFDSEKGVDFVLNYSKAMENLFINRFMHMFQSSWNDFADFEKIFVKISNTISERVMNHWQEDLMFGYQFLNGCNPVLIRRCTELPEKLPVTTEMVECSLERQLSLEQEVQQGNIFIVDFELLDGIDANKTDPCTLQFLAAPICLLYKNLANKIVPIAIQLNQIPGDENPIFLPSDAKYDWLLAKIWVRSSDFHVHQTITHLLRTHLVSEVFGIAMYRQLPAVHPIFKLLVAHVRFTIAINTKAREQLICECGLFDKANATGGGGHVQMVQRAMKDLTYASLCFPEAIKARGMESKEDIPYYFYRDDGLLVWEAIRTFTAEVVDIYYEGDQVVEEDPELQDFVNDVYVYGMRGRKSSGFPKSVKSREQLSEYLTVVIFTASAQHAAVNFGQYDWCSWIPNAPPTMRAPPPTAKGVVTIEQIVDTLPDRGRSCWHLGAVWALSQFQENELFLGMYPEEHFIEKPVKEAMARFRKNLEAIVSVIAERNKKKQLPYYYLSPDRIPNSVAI
Method: The ability of the test compounds to inhibit the 5-LOX enzyme (IC50 value, μM) was detected using the Cayman Human Lipoxygenase Inhibitor Screening Assay (EIA) kit (catalog no. K980-100, Cayman Chemical). The IC50 values of test compounds were measured in µM according to the manufacturer’s instructions and reported method.

ovine COX-1 = biological target: T2, ovine COX-1 (Ovis aries, UniProt P05979); test: COX-1 inhibition, enzyme immune assay (EIA) kit
T2 sequence (P05979 25-600): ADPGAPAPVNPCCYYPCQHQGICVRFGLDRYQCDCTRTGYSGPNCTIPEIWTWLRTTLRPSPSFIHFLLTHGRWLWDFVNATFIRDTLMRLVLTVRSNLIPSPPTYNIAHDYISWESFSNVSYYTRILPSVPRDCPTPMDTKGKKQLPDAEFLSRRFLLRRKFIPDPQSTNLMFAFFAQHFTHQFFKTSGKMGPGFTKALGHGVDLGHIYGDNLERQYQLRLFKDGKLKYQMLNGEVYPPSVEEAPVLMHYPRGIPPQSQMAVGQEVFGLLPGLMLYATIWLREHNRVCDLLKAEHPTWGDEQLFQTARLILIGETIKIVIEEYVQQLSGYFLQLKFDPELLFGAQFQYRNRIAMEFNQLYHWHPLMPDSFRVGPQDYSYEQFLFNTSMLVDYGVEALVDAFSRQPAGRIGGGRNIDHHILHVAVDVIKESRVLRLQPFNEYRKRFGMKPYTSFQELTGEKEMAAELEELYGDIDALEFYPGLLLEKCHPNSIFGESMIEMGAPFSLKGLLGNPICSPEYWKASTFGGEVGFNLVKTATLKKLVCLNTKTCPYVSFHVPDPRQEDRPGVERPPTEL
Source text: Colorimetric enzyme immunoassay (EIA) kits were done to screen for the isozyme-specific inhibition.

DPPH free radical assay = assay type: biochemical; conditions: 540 nm, relative to Trolox; for DPPH test results (µM trolox equivalent/ 1mg sample ± SD): 30 min; for DPPH anti-oxidant activity: values in text
Method: Preparation of samples was occurred at the following concentrations: Samples 3a, 4a, 5b, 5d and 5e at final concentrations of 0.5 mg/ml in methanol: DMSO 9:1 v/v. Samples 4b and 4d at final concentrations 0.025 mg/ml in methanol: DMSO 9:1 v/v, sample 5a at final concentrations 0.25 mg/ml in methanol: DMSO 9:1 v/v, Sample 4c, 5c and 4e at final concentrations 0.05 mg/ml in methanol: DMSO 9:1 v/v, sample 3b at final concentration 0.75 mg/ml methanol: DMSO 9:1 v/v. A stock solution of 100 µM concentration of Trolox, a standard used in this experiment, was prepared in methanol from which seven concentrations were prepared, including 50, 40, 30, 20, 15, 10 and 5 µM.
The DPPH (2,2-diphenyl-1-picryl-hydrazyl-hydrate) free radical assay was carried out according to the method of Boly et al. 2016[39]. Briefly, freshly prepared DPPH reagent (100 µl, 0.1% in methanol) was added to 100 µl of the sample on 96 well plates (n = 6). The reaction was incubated at room temp for 30 min in the dark. After completion of the incubation time, the reduction in DPPH colour intensity was measured at 540 nm. Data obtained was represented as means ± SD, according to the following equation, percentage inhibition = [(Average absorbance of blank – average absorbance of the test)/(Average absorbance of blank)] *100. The results were recorded using a microplate reader, FluoStar Omega.
Microsoft Excel® was used to analyse the obtained results. The IC50 values were calculated using Graph pad Prism 6® by converting the concentrations to their logarithmic value and selecting the non-linear inhibitor regression equation (log (inhibitor) vs. normalised response – variable slope equation). The methods used and the final test report (R-SO7320) were obtained from Nawah Scientific.

COX-2 = biological target: T3, COX-2 (Ovis aries, UniProt P79208); test: COX-2 inhibition, enzyme immune assay (EIA) kit; assay type: biochemical, ovine; conditions: for S.I (IC50 COX-1/IC50 COX-2): COX-2 selectivity index; for SI: lab report, COX1/COX2
T3 sequence (P79208 17-603): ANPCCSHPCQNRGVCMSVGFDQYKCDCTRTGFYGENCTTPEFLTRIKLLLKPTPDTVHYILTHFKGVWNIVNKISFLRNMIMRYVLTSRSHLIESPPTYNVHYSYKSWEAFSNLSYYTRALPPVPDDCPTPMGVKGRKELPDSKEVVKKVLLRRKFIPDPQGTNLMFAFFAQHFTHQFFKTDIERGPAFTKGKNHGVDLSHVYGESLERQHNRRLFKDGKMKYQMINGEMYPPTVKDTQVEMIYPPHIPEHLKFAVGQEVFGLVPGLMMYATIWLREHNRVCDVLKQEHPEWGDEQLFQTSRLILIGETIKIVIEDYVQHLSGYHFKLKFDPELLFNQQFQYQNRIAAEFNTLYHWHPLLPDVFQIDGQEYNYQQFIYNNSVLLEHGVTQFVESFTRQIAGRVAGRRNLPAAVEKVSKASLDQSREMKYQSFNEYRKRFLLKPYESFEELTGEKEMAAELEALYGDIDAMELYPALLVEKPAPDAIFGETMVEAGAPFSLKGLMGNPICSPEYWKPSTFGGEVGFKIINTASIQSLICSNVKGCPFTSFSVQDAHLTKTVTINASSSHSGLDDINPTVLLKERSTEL

[1] = tested on: TNF-α in RAW264.7 macrophage cells; test: In vitro measurement of TNF-α in RAW264.7 macrophage cells (RT-qPCR); assay type: cell-based
Source text: Both Lipopolysaccharides (LPS) and hispidin were purchased from Sigma (Sigma-Aldrich, St. Louis, MO, USA)[40]. The foetal bovine serum (FBS) and Dulbecco’s modified Eagle’s medium (DMEM) were purchased from Hyclone (General Electric Healthcare Life Sciences, Mississauga, Canada), penicillin streptomycin (P/S) was purchased from Solarbio (Solarbio life sciences, Beijing, P. R. China). Results of all in vitro anti-inflammatory screening were obtained from the confirmatory diagnostic unit, VACSERA, Egypt.
DMEM was used to cultivate the macrophage cells RAW264.7 (Shanghai BOGO Industrial Co., Ltd., Shanghai, China), and supplemented with 10% FBS and 1% P/S (100 U/ml and […], respectively). […] They were treated with various concentrations of hispidin, then with 1 μg/ml LPS for the indicated time.
PBS (1 ml/well) was used to wash the cells in 24-well plates. […] For the experiments, CL Buffer included MgCl2 (M1028; Sigma) or RNasin Plus RNase Inhibitor (N2615; Promega). Before use, both Bio-Rad SPR and CL buffer were equilibrated to room temperature. […] Carefully, the resulting lysates were collected and either analysed immediately or stored frozen ([…]).
RT-qPCR analysis was performed in one-step SYBR Green RT-qPCR. […] A CFX96 real-time PCR instrument (Bio-Rad) was used under the following protocol: 50uC for 10 min, 95uC for 5 min, 95uC for 10 s/61uC for 15 s/72uC for 30 s.
Total RNA purified from cells was used as an RT-qPCR quantification standard.

IC50 (5-LOX enzyme)	5-LOX %inh (5-LOX enzyme; conc 0.1 (μM))	5-LOX %inh (5-LOX enzyme; conc 1 (μM))	5-LOX %inh (5-LOX enzyme; conc 10 (μM))	5-LOX %inh (5-LOX enzyme; conc 100 (μM))	IC50 (5-LOX enzyme; lab report)	IC50 (ovine COX-1; IC50 COX-1)	COX1 %inh (ovine COX-1; conc 0.1 (μM))	COX1 %inh (ovine COX-1; conc 1 (μM))	COX1 %inh (ovine COX-1; conc 10 (μM))	COX1 %inh (ovine COX-1; conc 100 (μM))	S.I (IC50 COX-1/IC50 COX-2) (COX-2)	SI (COX-2)	melting point	IC50 (ovine COX-1; read-out: IC50 COX-1)	Compound	DPPH test results (µM trolox equivalent/ 1mg sample ± SD) (DPPH free radical assay)	DPPH anti-oxidant activity (DPPH free radical assay)	TNF-α fold change [1]
4.03 ± 0.21 µM	12.1%	37.1%	57.1%	83.8%	4.03 ± 0.21 µM	5.01 ± 0.14 µM	11%	24.7%	60.6%	83.5%	3.12	3.116	220 to 222 °C		CS(=O)(=O)n1cc(/C=N/NC(=S)Nc2ccccc2)c2ccccc21 [Compound 4c, (E)-2{[1-(methylsulfonyl)-1H-indol-3yl]methylene}-N-phenylhydrazinecarbothioamide]	263.29 ± 12.30 µM trolox equivalent/ 1mg sample	about 263.29 µM Trolox equivalent/mg	
6.65 ± 0.35 µM	11.6%	24.1%	53%	80.8%	6.65 ± 0.35 µM		3.76%	13.1%	20%	68.5%	9.72 and 9.73	9.726	273 to 275 °C	47.5 ± 1.35 µM	COc1ccc(N2CC(=O)S/C2=N\N=C\c2cn(S(C)(=O)=O)c3ccccc23)cc1 [Compound 5e]	13.22 ± 1.89 µM trolox equivalent/ 1mg sample		
48.8 ± 2.58 µM	2.63%	5.83%	18.6%	70.3%		21.1 ± 0.6 µM	4.87%	12.4%	37.8%	71%	0.78	0.779	238 to 240 °C		CS(=O)(=O)n1cc(/C=N/NC(N)=O)c2ccccc21 [Compound 3a, (E)-2{[1-(methylsulfonyl)-1H-indol-3yl]methylene}hydrazinecarboxamide]	5.91 ± 1.87 µM trolox equivalent/ 1mg sample		
			77.1%	92.8%											CC(c1cc2ccccc2s1)N(O)C(N)=O (stereo not shown) [Zileuton, reference compound]			
79.4 ± 4.2 µM	2.32%	5.84%	13%	66.7%			4.55%	10.5%	27.9%	72.1%	3.63	3.628	260 to 262 °C	29.2 ± 0.83 µM	CS(=O)(=O)n1cc(/C=N/N=C2\SC(=O)CN2c2ccccc2)c2ccccc21 [Compound 5c]	707.52 ± 49.91 µM trolox equivalent/ 1mg sample	707.52 µM Trolox equivalent/mg and 707.5 µM Trolox equivalent/mg	
2.31 ± 0.12 µM	11.4%	43.6%	69%	90.3%	2.31 ± 0.12 µM	11.3 ± 0.32 µM	7.54%	18.6%	44%	77.6%	2.80	2.799	178 to 180 °C		CS(=O)(=O)n1cc(/C=N/NC(N)=S)c2ccccc21 [Compound 4a, (E)-2{[1-(methylsulfonyl)-1H-indol-3yl]methylene}-hydrazine-1-carbothioamide]	24.55 ± 1.61 µM trolox equivalent/ 1mg sample		

Compound	IC50 (5-LOX enzyme)	5-LOX %inh (5-LOX enzyme; conc 0.1 (μM))	5-LOX %inh (5-LOX enzyme; conc 1 (μM))	5-LOX %inh (5-LOX enzyme; conc 10 (μM))	5-LOX %inh (5-LOX enzyme; conc 100 (μM))	IC50 (5-LOX enzyme; lab report)	IC50 (ovine COX-1; IC50 COX-1)	COX1 %inh (ovine COX-1; conc 0.1 (μM))	COX1 %inh (ovine COX-1; conc 1 (μM))	COX1 %inh (ovine COX-1; conc 10 (μM))	COX1 %inh (ovine COX-1; conc 100 (μM))	S.I (IC50 COX-1/IC50 COX-2) (COX-2)	SI (COX-2)	melting point	IC50 (ovine COX-1; read-out: IC50 COX-1)	DPPH test results (µM trolox equivalent/ 1mg sample ± SD) (DPPH free radical assay)	DPPH anti-oxidant activity (DPPH free radical assay)	TNF-α fold change [1]
CS(=O)(=O)n1cc(/C=N/N=C2/NCC(=O)S2)c2ccccc21 [Compound 5a]	9.23 ± 0.49 µM	7.21%	17.4%	50.3%	79%			13.6%	32.4%	59%	85.6%	0.59	0.592		3.95 ± 0.11 µM	12.71 ± 1.16 µM trolox equivalent/ 1mg sample		0.66
